Measured values as given in PMC6099957, “Mouse β-Defensin 3, A Defensin Inhibitor of Both Its Endogenous and Exogenous Potassium Channels” (Molecules : A Journal of Synthetic Chemistry and Natural …, 2018).
Read-outs that look alike come from different tables or passages of the source. No end group written: not given here.

Legend:
Kv1.3 = settings: read-out: IC50 as Kv1.3 inhibitor; cited from earlier work
Source text: Here, the Kv1.3 channel-sensitive hBD2 was used as the molecular template to search potential mouse β-defensin from the biological databases. […] Besides the sequence similarity, the distribution of six cysteine amino acid residues was also identical. In order to better understand the structural feature of mBD3, its structure was modeled by the tem ...

human Kv1.3 channel = test: Whole-cell patch clamp, human Kv1.3 channel in HEK293 cells; type: cell-based; settings: 1 μM rmBD3, mean ± SE, at least three times, SEM
Source text: (§1) The pRc/CMV-hKv1.3 vector was kindly provided by Prof. Stephan Grissmer (University of Ulm, Ulm, Germany) and Prof. Olaf Pongs (Zentrum für Molekulare Neurobiologie der University Hamburg, Hamburg, Germany). The cDNAs encoding human Kv1.1, Kv1.2, hERG and KCNQ1/KCNE1 channels were subcloned into the vector pIRES2-EGFP (TaKaRa Clontech, Mountain View, CA, USA) for coexpression with the green fluorescent protein (GFP), and the other channels were subcloned into vector pcDNA 3.1(+) (TaKaRa Clontech, Mountain View, CA, USA) for coexpression with GFP. The constructs were verified by DNA sequencing (Sangon Biotech, Shanghai, China). The mutants Asp400, Asp401, Val402, Asp403, Asp411, Met428 and Tyr429 on the pore region of wild type mouse Kv1.6 channel plasmids were mutated into Ala with QuikChange Site-Directed Mutagenesis Kit (Agilent Stratagene, Santa Clara, CA, USA). All the mutants were verified by DNA sequencing before being used (Sangon Biotech, China).
(§2) Human embryonic kidney 293 (HEK293) cells were cultured Dulbecco’s modified Eagle medium (Thermo Fisher Scientific, Pittsburgh, PA. USA) with 10% heat-inactivated fetal calf serum supplemented with penicillin (100 units/mL) and streptomycin (100 μg/mL) in a humidified 5% CO2 incubator at 37 °C. […] Potassium currents were recorded after transfection for 1 to 3 days and positive cells were selected based on the presence of GFP fluorescence. […]

Kv1.6-V402A channel = test: Patch clamp, mouse Kv1.6 pore region mutant V402A; type: cell-based; settings: 1 μM rmBD3; HEK293 cells; mean ± SE, at least three times; SEM
Source text: as §1, §2

hERG channel = type: cell-based, human; settings: 1 μM rmBD3; HEK293 cells; mean ± SE, at least three times; SEM
Source text: as §1, §2

human Kv1.6 channel = test: Whole-cell patch clamp, human Kv1.6 channel in HEK293 cells; type: cell-based; settings: 1 μM rmBD3, mean ± SE, at least three times, SEM
Experimental: (§3) Human embryonic kidney 293 (HEK293) cells were cultured Dulbecco’s modified Eagle medium (Thermo Fisher Scientific, Pittsburgh, PA. USA) with 10% heat-inactivated fetal calf serum supplemented with penicillin (100 units/mL) and streptomycin (100 μg/mL) in a humidified 5% CO2 incubator at 37 °C. Plasmids were transfected into HEK293 cells using the TurboFect in vitro Transfection Reagent (Thermo Fisher Scientific, Pittsburgh, PA, USA). Potassium currents were recorded after transfection for 1 to 3 days and positive cells were selected based on the presence of GFP fluorescence.
(§4) Electrophysiological experiments were carried out at room temperature using the whole-cell recording mode by EPC10 patch clamp amplifier (Heka Elektronik, Lambrecht, Germany), which was controlled by Patchmaster software version 2 × 65 (Heka Elektronik, Holliston, MA, USA). For all the channels, HEK293 cells were bathed with mammalian Ringer’s solution contained 5 mM KCl, 140 mM NaCl, 10 mM HEPES, 2 mM CaCl2, 1 mM MgCl2 and 10 mM D-glucose (pH adjusted to 7.4 with NaOH). When rmBD3 was applied, 0.01% BSA was added to the Ringer’s solution. A multichannel microperfusion system MPS-2 (INBIO Inc., Wuhan, China) was used to exchange the external recording bath solution. […] The currents through Kv channels and KCNQ1/KCNE1 channel were recorded according to previously published references. […]

Kv1.6-D401A channel = test: Patch clamp, mouse Kv1.6 pore region mutant D401A; type: cell-based; settings: 1 μM rmBD3; HEK293 cells; mean ± SE, at least three times; SEM
Source text: as §1, §2

Kv1.6-D411A channel = test: Patch clamp, mouse Kv1.6 pore region mutant D411A; type: cell-based; settings: 1 μM rmBD3; HEK293 cells; mean ± SE, at least three times; SEM
Source text: as §1, §2

human Kv1.2 channel = test: Whole-cell patch clamp, human Kv1.2 channel in HEK293 cells; type: cell-based; settings: 1 μM rmBD3, mean ± SE, at least three times, SEM
Source text: as §1, §2

Kv1.6-M428A channel = test: Patch clamp, mouse Kv1.6 pore region mutant M428A; type: cell-based; settings: 1 μM rmBD3; HEK293 cells; mean ± SE, at least three times; SEM
Source text: as §1, §2

human Kv1.1 channel = test: Whole-cell patch clamp, human Kv1.1 channel in HEK293 cells; type: cell-based; settings: 1 μM rmBD3, mean ± SE, at least three times, SEM
Source text: as §1, §2

mouse Kv1.6 channel = test: Whole-cell patch clamp, mouse Kv1.6 channel in HEK293 cells; type: cell-based; settings: mean ± SE, SEM; for inhibition of mouse Kv1.6 channel currents: at least three times
Experimental: as §3
(§5) Electrophysiological experiments were carried out at room temperature using the whole-cell recording mode by EPC10 patch clamp amplifier (Heka Elektronik, Lambrecht, Germany), which was controlled by Patchmaster software version 2 × 65 (Heka Elektronik, Holliston, MA, USA). For all the channels, HEK293 cells were bathed with mammalian Ringer’s solution contained 5 mM KCl, 140 mM NaCl, 10 mM HEPES, 2 mM CaCl2, 1 mM MgCl2 and 10 mM D-glucose (pH adjusted to 7.4 with NaOH). When rmBD3 was applied, 0.01% BSA was added to the Ringer’s solution. A multichannel microperfusion system MPS-2 (INBIO Inc., Wuhan, China) was used to exchange the external recording bath solution. The internal pipette solution contains 140 mM KCl, 1 mM MgCl2, 1 mM EGTA, 1 mM Na2ATP and 5 mM HEPES (pH adjusted to 7.4 with NaOH). All channel currents were elicited by depolarizing voltage steps of 200 ms from the holding potential −80 mV to +50 mV. Currents were typically digitized at 20 kHz and filtered at 2.9 kHz (Bessel). Electrode resistances were 3.0–5.0 MΩ, and the series resistance was usually compensated by 85%. The currents through Kv channels and KCNQ1/KCNE1 channel were recorded according to previously published references.
(§6) The IC50 values were obtained by fitting a modified Hill equation to the data with the formula: IrmBD3/Icontrol = 1/(1 + [rmBD3]/IC50), where [rmBD3] is the concentration of rmBD3, IrmBD3 and Icontrol are the peak currents in the presence and absence of rmBD3 at four different concentrations. The conductance of mouse Kv1.6 channel was calculated by the formula: G = Ipeak/(V − EKv1.6), where Ipeak is the peak current, EKv1.6 is the reversal potential of the Kv1.6 channel. The conductance-voltage (G-V) curves were generated by the measured peak currents and fitted with a V50-V equation using the formula: G/Gmax = 1/(1 + exp [(V − V50)/k]), where G is the conductance of the channels, Gmax is the maximal channel conductance, V is the membrane voltage, V50 is the voltage of half-maximal activation, and k is the slope factor. The data were presented as the means ± SE of at least three times repeated experiments. Sigmaplot 12.5 and GraphPad Prism 5 software were used for analysis.

mouse Kv1.3 channel = test: Whole-cell patch clamp, mouse Kv1.3 channel in HEK293 cells; type: cell-based; settings: 1 μM rmBD3, mean ± SE, at least three times, SEM
Experimental: as §3, §4

[1] = test system: human KCNQ1/KCNE1 channel; type: cell-based; settings: HEK293 cells, mean ± SE, SEM; for inhibition of human KCNQ1/KCNE1 channel currents: at least three times
Source text: as §1, §3
as §5, with “Electrode resistances were 3.0–5.0 MΩ, and the series resistance was usually compensated by 85%.” left out
as §6, with “The data were presented as the means ± SE of at least three times repeated experiments. Sigmaplot 12.5 and GraphPad Prism 5 software were used for analysis.” left out

Kv1.6-Y429A channel = test: Patch clamp, mouse Kv1.6 pore region mutant Y429A; type: cell-based; settings: 1 μM rmBD3; HEK293 cells; mean ± SE, at least three times; SEM
Source text: as §1, §2

Kv1.6-D403A channel = test: Patch clamp, mouse Kv1.6 pore region mutant D403A; type: cell-based; settings: 1 μM rmBD3; HEK293 cells; mean ± SE, at least three times; SEM
Source text: as §1, §2

mouse Kv1.2 channel = test: Whole-cell patch clamp, mouse Kv1.2 channel in HEK293 cells; type: cell-based; settings: 1 μM rmBD3, mean ± SE, at least three times, SEM
Experimental: as §3, §4

human Kv3.2 channel = test: Whole-cell patch clamp, human Kv3.2 channel in HEK293 cells; type: cell-based; settings: 1 μM rmBD3, mean ± SE, at least three times, SEM
Experimental: as §3, §4

Kv1.6-D400A channel = test: Patch clamp, mouse Kv1.6 pore region mutant D400A; type: cell-based; settings: 1 μM rmBD3; HEK293 cells; mean ± SE, at least three times; SEM
Source text: as §1, §2

human KCNQ1 channel = type: cell-based; settings: 1 μM rmBD3; HEK293 cells; mean ± SE, at least three times; SEM
Experimental: as §3, §4

mouse Kv1.1 channel = test: Whole-cell patch clamp, mouse Kv1.1 channel in HEK293 cells; type: cell-based; settings: 1 μM rmBD3, mean ± SE, at least three times, SEM
Experimental: as §3, §4

hBD1: human β-defensin, Kv1.3 channel blocker binding the pore region (DHYNCVSSGGQCLYSACPIFTKIQGTCYRGKAKCCK; ends and bridges not checked; cysteine pairing not given here; UniProt P60022 33-68, looked up)
IC50 (Kv1.3): 11800 nM

human β-defensin 2 [hBD2]
IC50 (Kv1.3): 0.022 nM

mouse β-defensin 3 (KKINNPVSCLRKGGRCWNRCIGNTRQIGSCGVPFLKCCKRK; ends and bridges not checked; cysteine pairing not given here; UniProt Q9WTL0 23-63, looked up) [rmBD3, Recombinant mouse β-defensin 3 expressed in E. coli, cleaved from His-tag fusion by Enterokinase, HPLC purified]
inhibition of human Kv1.3 potassium currents (human Kv1.3 channel): 14.6 ± 0.9%
inhibition of mutant Kv1.6-V402A channel (Kv1.6-V402A channel): 21.8 ± 4.5%
inhibition of hERG potassium currents (hERG channel): 14.7 ± 3.9%
inhibition of human Kv1.6 potassium currents (human Kv1.6 channel): 31.2 ± 3.6%
inhibition of mutant Kv1.6-D401A channel (Kv1.6-D401A channel): 20.7 ± 4.5%
inhibition of mutant Kv1.6-D411A channel (Kv1.6-D411A channel): 43.2 ± 3.5%
inhibition of human Kv1.2 potassium currents (human Kv1.2 channel): 9.3 ± 0.8%
inhibition of mutant Kv1.6-M428A channel (Kv1.6-M428A channel): 39.3 ± 1.8%
inhibition of human Kv1.1 potassium currents (human Kv1.1 channel): 8.8 ± 3.0%
inhibition of mouse Kv1.6 channel currents (mouse Kv1.6 channel; 1 nM rmBD3, HEK293 cells): 18.1 ± 2.4%
inhibition of mouse Kv1.6 channel currents (mouse Kv1.6 channel; 10 nM rmBD3, HEK293 cells): 26.4 ± 1.8%
inhibition of mouse Kv1.6 channel currents (mouse Kv1.6 channel; 1 μM rmBD3, HEK293 cells, whole-cell patch clamp): 56.1 ± 4.2%
inhibition of mouse Kv1.6 channel currents (mouse Kv1.6 channel; 10 μM rmBD3, HEK293 cells): 73.1 ± 2.2%
IC50 (mouse Kv1.6 channel; Hill equation fitting, four concentrations, HEK293 cells, read-out: IC50, mouse Kv1.6 channel currents): 600 ± 400 nM
k (slope factor) of activation G-V curve of Kv1.6 channel in the presence of rmBD3 (mouse Kv1.6 channel; after treatment with 1 μM rmBD3 (control 6.8 ± 0.6), Boltzmann fitting): 6.5 ± 0.4
V50 of activation G-V curve of Kv1.6 channel in the presence of rmBD3 (mouse Kv1.6 channel; after treatment with 1 μM rmBD3 (control −23.8 ± 0.7 mV), Boltzmann fitting): −18.8 ± 0.5 mV
inhibition of mouse Kv1.3 potassium currents (mouse Kv1.3 channel): 14.0 ± 3.7%
inhibition of human KCNQ1/KCNE1 channel currents ([1]; 10 nM rmBD3): 21.8 ± 3.6%
inhibition of human KCNQ1/KCNE1 channel currents ([1]; 100 nM rmBD3): 32.4 ± 1.8%
inhibition of human KCNQ1/KCNE1 channel currents ([1]; 1 μM rmBD3): 46.3 ± 4.2%
inhibition of human KCNQ1/KCNE1 channel currents ([1]; 10 μM rmBD3): 68.8 ± 3.8%
IC50 ([1]; Hill equation fitting, four concentrations, read-out: IC50, human KCNQ1/KCNE1 channel currents): 1200 ± 800 nM
inhibition of mutant Kv1.6-Y429A channel (Kv1.6-Y429A channel): 36.7 ± 2.0%
inhibition of mutant Kv1.6-D403A channel (Kv1.6-D403A channel): 35.6 ± 1.0%
inhibition of mouse Kv1.2 potassium currents (mouse Kv1.2 channel): 4.9 ± 0.6%
inhibition of human Kv3.2 potassium currents (human Kv3.2 channel): 11.6 ± 1.3%
inhibition of mutant Kv1.6-D400A channel (Kv1.6-D400A channel): 54.9 ± 1.9%
inhibition of human KCNQ1 channel currents (human KCNQ1 channel): 26.1 ± 4.8%
inhibition of mouse Kv1.1 potassium currents (mouse Kv1.1 channel): 19.0 ± 2.2%
